According to patent US20230069804A1, “METHODS AND COMPOSITIONS FOR MODULATING SPLICING” (SkyHawk Therapeutics, Inc., priority 2019, published 2023):
Values joined by “and” are separate entries in the source; they are usually repeats but may differ in a detail not shown here. Equal entries are not always repeated. Where two headings read alike, the source gives them in different places.

What was measured:
MDR1 = assay: MDCK-MDR1 permeability assay (BBB penetration potential); assay type: in vitro ADME; conditions: dog; for Papp A→B at 120 min, 5 μM / Papp B→A at 120 min, 5 μM: MDCK-MDR1, pH 7.4
Method: (§1) Each determination is performed in duplicate. […] Analytical conditions are outlined below.
(§2) Papp=(dCr/dt)×Vr/(A×CA) (1)

[1] = system: MDR1-MDCK cell monolayers; assay: as above; assay type: in vitro ADME; conditions: 5 μM, 120 minutes; for MDCK-MDR1: % Recov A-B / MDCK-MDR1: % Recov B-A: pH 7.4; for MDCK MDRP1 Efflux Ratio: Papp (B-to-A)/Papp (A-to-B), separated enantiomers, told apart by chiral retention time
Method: as §1, §2

[2] = MDCK-MDR1, pH 7.4, Papp (B-to-A)/Papp (A-to-B), 5 μM, 120 minutes, separated enantiomers, told apart by chiral retention time, read-out: MDCK MDRP1 Efflux Ratio
[3] = MDCK-MDR1, pH 7.4, Papp (B-to-A)/Papp (A-to-B), read-out: MDCK-MDR1: Efflux

SMILES	efflux ratio at 120 min, 5 μM (MDR1; [2])	efflux ratio at 120 min, 5 μM (MDR1; [3])	Papp A→B at 120 min, 5 μM (MDR1; 5 μM, 120 minutes) [×10⁻⁶ cm/s]	Papp B→A at 120 min, 5 μM (MDR1; 5 μM, 120 minutes) [×10⁻⁶ cm/s]	MDCK-MDR1: % Recov A-B [1] [%]	MDCK-MDR1: % Recov B-A [1] [%]	MDCK MDRP1 Efflux Ratio [1]
CN(c1nnc(-c2ccc(-c3cn[nH]c3)cc2O)s1)[C@H]1C[C@@H]2CC[C@@H](N2)[C@H]1F (racemic) [7A/7B, 2-(5-{[(1S,2S,3R,5R)-2-fluoro-8-azabicyclo[3.2.1]octan-3-yl](methyl)amino}-1,3,4-thiadiazol-2-yl)-5-(1H-pyrazol-4-yl)phenol and 2-(5-{[(1R,2R,3S,5S)-2-fluoro-8-azabicyclo[3.2.1]octan-3-yl](methyl)amino}-1,3,4-thiadiazol-2-yl)-5-(1H-pyrazol-4-yl)phenol]	12						
CN(c1nnc(-c2ccc(-c3cnn(C)c3)cc2O)s1)[C@H]1C[C@@H]2CC[C@H]([C@H]1F)N2C (single isomer, unassigned) [Compound E-25A]		4	8.7	32	70	82	
COc1cc(-c2ccc(-c3nnc(N(C)[C@H]4C[C@@H]5CC[C@@H](N5)[C@H]4F)s3)c(O)c2)ccn1 (single isomer, unassigned) [Compound E-11B]		2	3.71	6.07	17	60	
CN(c1nnc(-c2cc(F)c(-c3cn[nH]c3)cc2O)s1)[C@@H]1C[C@H]2CC[C@H](N2)[C@@H]1F (single isomer, unassigned) [Compound E-6A]		15	2.33	35.2	59	80	
CN(c1nnc(-c2ccc(-c3cc(=O)n(C)cn3)cc2O)s1)[C@@H]1C[C@H]2CC[C@H](N2)[C@@H]1F (single isomer, unassigned) [Compound E-8A]		21	1.31	27.8	116	114	
CN(c1nnc(-c2ccc(-c3ccn(CF)c(=O)c3)cc2O)s1)[C@@H]1C[C@H]2CC[C@H](N2)[C@@H]1F (racemic) [15A/15B, 4-[4-(5-{[(1S,2S,3R)-2-fluoro-8-azabicyclo[3.2.1]octan-3-yl](methyl)amino}-1,3,4-thiadiazol-2-yl)-3-hydroxyphenyl]-1-(fluoromethyl)-1,2-dihydropyridin-2-one and 4-[4-(5-{[(2R,3S,5S)-2-fluoro-8-azabicyclo[3.2.1]octan-3-yl](methyl)amino}-1,3,4-thiadiazol-2-yl)-3-hydroxyphenyl]-1-(fluoromethyl)-1,2-dihydropyridin-2-one]	40						66
CN(c1nnc(-c2ccc(-c3cnn(C)c3)cc2O)s1)[C@@H]1C[C@H]2CCC[C@H](N2)[C@@H]1F (racemic) [1A/1B, 2-(5-(((1S,2S,3R,5R)-2-fluoro-9-azabicyclo[3.3.1]nonan-3-yl)(methyl)amino)-1,3,4-thiadiazol-2-yl)-5-(1-methyl-1H-pyrazol-4-yl)phenol and 2-(5-(((1R,2R,3S,5S)-2-fluoro-9-azabicyclo[3.3.1]nonan-3-yl)(methyl)amino)-1,3,4-thiadiazol-2-yl)-5-(1-methyl-1H-pyrazol-4-yl)phenol]	5.5						6
CN(c1nnc(-c2ccc(-c3cc(=O)n(C)cn3)cc2O)s1)[C@H]1C[C@@H]2CC[C@@H](N2)[C@H]1F (single isomer, unassigned) [Compound E-8B]		31	0.66	20.6	67	42	
CN(c1nnc(-c2ccc(-c3ccn(C)c(=O)c3)cc2O)s1)[C@H]1C[C@@H]2CC[C@@H](N2)[C@H]1F (single isomer, unassigned) [Compound E-4B]		40	1.81	71.4	115	125	
COc1cc(-c2ccc(-c3nnc(N(C)[C@@H]4C[C@H]5CC[C@H](N5)[C@@H]4F)s3)c(O)c2)ncn1 (racemic) [5A/5B, 2-(5-{[(1S,2S,3R)-2-fluoro-8-azabicyclo[3.2.1]octan-3-yl](methyl)amino}-1,3,4-thiadiazol-2-yl)-5-(6-methoxypyrimidin-4-yl)phenol and 2-(5-{[(2R,3S,5S)-2-fluoro-8-azabicyclo[3.2.1]octan-3-yl](methyl)amino}-1,3,4-thiadiazol-2-yl)-5-(6-methoxypyrimidin-4-yl)phenol]	2						
CN(c1nnc(-c2ccc(-c3cnn(CF)c3)cc2O)s1)[C@H]1C[C@@H]2CC[C@@H](N2)[C@H]1F (single isomer, unassigned) [Compound E-10A]		6	8.6	50.8	72	80	
COc1cc(-c2ccc(-c3nnc(N(C)[C@H]4C[C@@H]5CC[C@@H](N5)[C@H]4F)s3)c(O)c2)ncn1 (single isomer, unassigned) [Compound E-5B]		2	6.59	9.86	37	58	
COc1cc(-c2ccc(-c3nnc(N(C)[C@@H]4C[C@H]5CC[C@H](N5)[C@@H]4F)s3)c(O)c2)ccn1 (racemic) [11A/11B, 2-(5-{[(1S,2S,3R)-2-fluoro-8-azabicyclo[3.2.1]octan-3-yl](methyl)amino}-1,3,4-thiadiazol-2-yl)-5-(2-methoxypyridin-4-yl)phenol and 2-(5-{[(2R,3S,5S)-2-fluoro-8-azabicyclo[3.2.1]octan-3-yl](methyl)amino}-1,3,4-thiadiazol-2-yl)-5-(2-methoxypyridin-4-yl)phenol]	2						
COc1cc(-c2ccc(-c3nnc(N(C4CC4)[C@@H]4C[C@H]5CC[C@H](N5)[C@@H]4F)s3)c(O)c2)cc(F)n1 (racemic) [2A/2B, 2-(5-(cyclopropyl((1S,2S,3R,5R)-2-fluoro-8-azabicyclo[3.2.1]octan-3-yl)amino)-1,3,4-thiadiazol-2-yl)-5-(2-fluoro-6-methoxypyridin-4-yl)phenol and 2-(5-(cyclopropyl((1R,2R,3S,5S)-2-fluoro-8-azabicyclo[3.2.1]octan-3-yl)amino)-1,3,4-thiadiazol-2-yl)-5-(2-fluoro-6-methoxypyridin-4-yl)phenol]	5						
CN(c1nnc(-c2ccc(-c3cnn(C)c3)cc2O)s1)[C@H]1C[C@@H]2CC[C@H]([C@H]1F)N2C (racemic) [25A/25B, 2-(5-{[(1S,2S,3R,5R)-2-fluoro-8-methyl-8-azabicyclo[3.2.1]octan-3-yl](methyl)amino}-1,3,4-thiadiazol-2-yl)-5-(1-methyl-1H-pyrazol-4-yl)phenol and 2-(5-{[(1R,2R,3S,5S)-2-fluoro-8-methyl-8-azabicyclo[3.2.1]octan-3-yl](methyl)amino}-1,3,4-thiadiazol-2-yl)-5-(1-methyl-1H-pyrazol-4-yl)phenol]							3 and 4
